Where “and” joins values, the source holds several entries; their conditions need not be identical. Equal entries are not always repeated. Values belong to the substance of their own block, whether it stands above or below them.
Columns and labels:
[1] = BiotinDOTA (ST2210) binding capacity by HABA assay; conditions: WTavidin value assumed as 100%
[2] = Isothermal Titration Calorimetry of avidin/ST2210 interaction; assay type: binding; conditions: for KA / N (stoichiometry): ITC with ST2210; for association constants (KA): ITC with ST2210, text
[3] = Tissue localization in cryosections of avidinated muscle (immunofluorescence, haematoxylin/eosin); assay type: in vivo, Balb/c nude mice; conditions: 24 hrs from injection
Method: OXavidinHABA was evaluated for tissue localization in comparison to WTavidin in cryosections of avidinated tissues after intramuscular injection into one hind limb of Balb/c nude mice (Harlan, Udine Italy). The muscles were excised 24 hrs after treatment and serial cryosections were prepared from each sample. Each slide was stained with haematoxylin/eosin to evaluate the tissue morphology or incubated with a mouse anti avidin antibody (A5680, Sigma Aldrich, Italy) followed by anti mouse Alexa fluor 488 (Invitrogen, Milan Italy). Finally, slides were mounted with coverslips and observed under microscope.

[4] = Permanence in rabbit mammary tissue; assay type: in vivo, rabbits; conditions: for % ID/breast (+/− SD) at 24 h: rabbit mammary tissue; for amount found in the mammary tissue: rabbit, after 24 hours
Method: OXavidinHABA was evaluated for its permanence in the mammary tissue in comparison to WTavidin. […] The animals were sacrificed after 24 h from injection and tissue samples of the injected area of about 200 mg were collected and counted in a gamma counter as previously described. The data are the average (+/−SD) of 3 determinations.

[5] = assay type: in vivo, Balb/c nu/nu mice; conditions: for distribution of 111In-ST2210 in non target organs: mouse, in vivo
Method: After 48 hours from injection, the animals received intravenously (i.v.) 5 μg of ^111In-ST2210.
Groups of 5 animals were sacrificed at the indicated time points and radioactivity in the treated limb as well as in other non target organs measured by gamma counter (Camberra Packard, Schwadorf Austria).
One group of animals received a first intravenous dose of 5 μg of cold ST2210 24 hours prior to a second one of 5 μg ^111In-ST2210. The former occurred 24 hours after avidination. The animals were sacrificed 2 hours after i.v. injection of radiolabelled-ST2210 and radioactivity in the treated limb was measured by gamma counter as above.

[6] = set-up: species or system Balb/c mice; conditions: mouse, in vivo
Source text: ^125I-OXavidinHABA was saturated in vitro with ST2210, purified from unbound ST2210 by ultrafiltration and intramuscularly injected into one hind limb of Balb/c mice. The same protocol was followed with regard to WTavidin.

[7] = Long term tissue permanence of wild type and oxidized avidins; assay type: in vivo, Balb/c nu/nu mice; conditions: referred to the 1 hour level; treated hind limb
[8] = Thermal stability and conformational changes by circular dichroism spectroscopy (melting curves); assay type: physicochemical; conditions: for p (slope of sigmoidal curve) / Tm: without biotin; for Tm: dichroic signal at 225 nm, 25-95° C.; for thermal denaturation reversibility: heated without biotin
Method: Thermal stability and conformational changes were determined by circular dichroism spectroscopy before and after oxidation, with and without 4 equivalents of biotin. Melting curves were recorded by following the decrease of dichroic signal at 225 nm in the temperature range 25-95° C. The point of inflection and slope (p) of sigmoidal curves were calculated by means of Boltzman fitting model of the scientific graphing and data analysis Origin® 7.0 software and represent the point of transition through the denatured condition.
For each specific compound, the thermal stability corresponds to the temperature which matches the point of inflection of the corresponding curve registered in the temperature range 25-95° C.

[9] = set-up: species or system Balb/c nu/nu mice; conditions: mouse, in vivo
Method: The animal model of intraoperative avidination for radionuclide treatment IART® was set up by performing a surgical cut in one hind limb of a mouse, infiltrating radiolabelled avidin in the surgical margins and surrounding tissues and measuring radioactivity in the treated limb at different time points after administration. In a parallel group of mice, the radioactive avidin was infiltrated to the limb without surgery.
The amount of radioactivity, after 1 and 24 hours from administration was similar in the surgically treated and not surgically treated animals. Therefore, further studies were performed by infiltrating avidin without surgery. […] Labelled avidin was separated from free iodine by chromatography on a PD-10 column (Amersham Biosciences, Uppsala, Sweden) and oxidized as previously described in the Example 1 without any prior HABA protection.
Mice were sacrificed 1, 24 or 48 hours after ^111In-ST2210 administration and the treated and controlateral limbs, kidney, liver and blood samples were collected and counted in a gamma-counter (Camberra Packard, Schwadorf, Austria).

[10] = mouse, in vivo
Method: The injection into brain was performed through the left side of the skull, by using a Hamilton syringe, at a depth of 4-5 mm.

[11] = Tissue permanence of wild type, pegylated or oxidized avidins; assay type: in vivo, C57Bl/6 mice; conditions: 24 hours after i.m. injection in hind limb
Method: Radioactivity in the treated limb was measured by gamma counter (Camberra Packard, Schwadorf Austria).
Chemically modified avidins were previously described by other groups with the intent of improving the avidin half-life in circulation (Caliceti P., et al., J. Control. Release, 2002, 83, 97; Salmaso S., et al., Int. J. Pharm., 2007, 340, 20). […] After 24 hours from injection, the animals were sacrificed and radioactivity in the treated limb was measured by gamma counter (Camberra Packard, Schwadorf Austria).

[12] = test system: tumoral lesions of the mammary gland of NeuT mice; assay: Therapeutic efficacy of pre-targeted brachytherapy in NeuT transgenic mice (whole mount analysis of mammary gland); assay type: in vivo, Balb-NeuT mice; conditions: compared to vehicle or WTavidin-treated breast; 90Y-ST2210 800 μCi
Method: Two animals/group were sacrificed 3 hours after administration and both breasts IV and III excised and counted in a gamma counter as above. Non target organs were also collected weighted and counted. Data are expressed as the % ID/g of tissue. The effect of this pre-targeted brachytherapy on the tumoral lesions were evaluated by whole mount analysis of the mammary gland as described previously (De Giovanni C., et al., Cancer Research, 2004, 64, 4001).

BiotinDOTA binding % ± SD [1]: 95.0 ± 1.7%
Substance: OXavidinHABA 5 mM NaIO4: avidin oxidized with 5 mM NaIO4 in presence of 1 mM HABA
KA [2]: 5.42e+06 ± 590000 M⁻¹ | N (stoichiometry) [2]: 1.9 ± 0.012

BiotinDOTA binding % ± SD [1]: 44.5 ± 0.9%
Substance: OXavidin 40 mM NaIO4: avidin oxidized with 40 mM NaIO4 without HABA

BiotinDOTA binding % ± SD [1]: 77.2 ± 0.9%
Substance: OXavidin 1 mM NaIO4: avidin oxidized with 1 mM NaIO4 without HABA

BiotinDOTA binding % ± SD [1]: 81.4% | BiotinDOTA binding % ± SD ([1]; listed as OXavidinHABA 20 mM NaIO4 + 1 mM HABA): 81.4 ± 1.0 %
Substance: OXavidinHABA 20 mM NaIO4: avidin oxidized with 20 mM NaIO4 in presence of 1 mM HABA
KA [2]: 2.5e+06 ± 132000 M⁻¹ | N (stoichiometry) [2]: 1.5 ± 0.007

BiotinDOTA binding % ± SD [1]: 49.1% and 49.1 ± 2.1%
Substance: OXavidin 20 mM NaIO4: avidin oxidized with 20 mM NaIO4 without HABA
KA [2]: 645000 ± 56900 M⁻¹ | N (stoichiometry) [2]: 1.2 ± 0.012

BiotinDOTA binding % ± SD [1]: 86.3% | BiotinDOTA binding % ± SD ([1]; listed as OXavidinHABA 10 mM NaIO4 + 1 mM HABA): 86.3 ± 1.6 %
Substance: OXavidinHABA 10 mM NaIO4: avidin oxidized with 10 mM NaIO4 in presence of 1 mM HABA
KA [2]: 3.34e+06 ± 212000 M⁻¹ | N (stoichiometry) [2]: 1.7 ± 0.008

BiotinDOTA binding % ± SD [1]: 99.0 ± 0.2%
Substance: OXavidinHABA 1 mM NaIO4: avidin oxidized with 1 mM NaIO4 in presence of 1 mM HABA
KA [2]: 4.58e+06 ± 249000 M⁻¹ | N (stoichiometry) [2]: 2.5 ± 0.008

BiotinDOTA binding % ± SD [1]: 50.9% and 50.9 ± 2.4%
Substance: OXavidin 10 mM NaIO4: avidin oxidized with 10 mM NaIO4 without HABA

Continued, substance first:

Substance: WTavidin: wild type avidin, glycoprotein of about 68 kDa present in egg white, high affinity for biotin [reference compound]
haematoxylin/eosin staining of muscle [3]: no histological abnormalities | % ID/breast (+/− SD) at 24 h [4]: 8.5 (1.13) % ID/breast | amount found in the mammary tissue [4]: 8.5 % ID | distribution of 111In-ST2210 in non target organs [5]: similar | amount in the treated limb [6]: < 0.5 % ID/100 mg | BiotinDOTA binding % ± SD [1]: 100^@ % | tissue half life [7]: 2 h | stoichiometry of interaction [2]: 3.0 molecules of ST2210 per molecule | KA [2]: 3.45e+06 ± 307000 M⁻¹ | N (stoichiometry) [2]: 3.0 ± 0.016 | association constants (KA) [2]: 3.45e+06 M⁻¹ | p (slope of sigmoidal curve) [8]: 14.7 | Tm [8]: 79.0 °C | Tm ([8]; listed as Avidin): 79.0 ± 0.1 °C | Tm ([8]; listed as avidin): 79.0 °C | p (slope of sigmoidal curve) ([8]; listed as Avidin): 14.7 ± 0.3 | p (slope of sigmoidal curve) ([8]; listed as avidin): 14.7 | distribution in the non target organs (blood, kidney, liver) [9]: higher distribution

Substance: OXavidinHABA 40 mM NaIO4 + 1 mM HABA: avidin oxidized with 40 mM NaIO4 in presence of 1 mM HABA
BiotinDOTA binding % ± SD [1]: 73.0 ± 0.6%

Substance: OXavidinHABA: HABA-saturated avidin oxidized with sodium periodate; NaIO4 concentration not stated at these places
residence in the brain [10]: about 12.65±6.59 % ID/100 mg of tissue | haematoxylin/eosin staining of muscle [3]: no histological abnormalities | % ID/breast (+/− SD) at 24 h [4]: 65.8 (0.08) % ID/breast | amount found in the mammary tissue [4]: 65.8 % ID | specific captation of 111In-ST2210 in treated tissue compared with WTavidin ([5]; 2 hours from i.v. injection, 48 hours after avidination): much higher | captation of second dose of 111In-ST2210 in treated limb ([5]; after a first dose of cold ST2210 24 hours before): comparable to that obtained with the single dose | distribution of 111In-ST2210 in non target organs [5]: similar | amount in the treated limb [6]: 17 % ID/100 mg | tissue permanence compared to WTavidin [11]: increase of tissue permanence | tissue half life [7]: about 2 weeks | stoichiometry of interaction [2]: 1.7 molecules of ST2210 per molecule | association constants (KA) [2]: 2.5e+06 M⁻¹ | thermal denaturation reversibility [8]: irreversible | p (slope of sigmoidal curve) [8]: 11.2 and 11.2 ± 0.4 | Tm [8]: 78.1 °C and 78.1 ± 0.3 °C | effect on cancer lesions of the mammary gland [12]: significant reduction of cancer lesions

Substance: OXavidin: avidin oxidized with sodium periodate without prior HABA protection; NaIO4 concentration not stated at these places
tissue half life [7]: about 2 weeks | stoichiometry of interaction [2]: 1.2 molecules of ST2210 per molecule | KA [2]: 645000 M⁻¹ | thermal denaturation reversibility [8]: irreversible | p (slope of sigmoidal curve) [8]: 8.9 and 8.9 ± 0.1 | Tm [8]: 74.3 °C and 74.3 ± 0.1 °C | amount in the treated limb compared to native avidin [9]: more than double | distribution in the non target organs (blood, kidney, liver) [9]: lower distribution

Substance: OXavidin 5 mM NaIO4: avidin oxidized with 5 mM NaIO4 without HABA
BiotinDOTA binding % ± SD [1]: 55.7 ± 2.2%

Substance: PEGavidin: PEG-conjugated avidin prepared according to Caliceti [reference compound]
tissue permanence compared to WTavidin [11]: did not affect the tissue permanence
